Paper PMC3928003 (Cardiovascular Research, 2013)

Target: T1, 5-lipoxygenase (5-LO) (Homo sapiens, UniProt P09917)
T1 sequence (P09917 1-674): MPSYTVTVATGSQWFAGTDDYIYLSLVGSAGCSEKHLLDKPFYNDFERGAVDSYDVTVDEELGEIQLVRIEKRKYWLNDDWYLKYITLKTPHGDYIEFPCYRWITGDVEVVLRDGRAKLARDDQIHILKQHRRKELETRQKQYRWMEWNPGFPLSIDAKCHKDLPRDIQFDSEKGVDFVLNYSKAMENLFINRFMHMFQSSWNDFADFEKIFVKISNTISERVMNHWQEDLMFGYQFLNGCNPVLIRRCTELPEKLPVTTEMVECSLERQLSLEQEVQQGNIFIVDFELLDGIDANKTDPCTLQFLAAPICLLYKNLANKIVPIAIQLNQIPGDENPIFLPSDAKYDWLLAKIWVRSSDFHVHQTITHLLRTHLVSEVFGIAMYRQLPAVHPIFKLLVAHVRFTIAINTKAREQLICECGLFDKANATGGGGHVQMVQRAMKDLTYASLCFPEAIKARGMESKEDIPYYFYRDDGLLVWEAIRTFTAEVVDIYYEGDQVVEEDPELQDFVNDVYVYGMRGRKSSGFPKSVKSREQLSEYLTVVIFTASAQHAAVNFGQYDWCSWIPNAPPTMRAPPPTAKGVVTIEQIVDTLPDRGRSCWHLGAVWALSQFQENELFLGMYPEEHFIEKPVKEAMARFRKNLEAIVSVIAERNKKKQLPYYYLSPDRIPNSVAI
Assay: cell-free 5-LO activity assay with arachidonic acid, products by HPLC
Format: biochemical

IC50: 7.8 to 10 µM
Compound: O=C1Nc2ccccc2/C1=C1/Nc2ccccc2/C1=N\O [I3MO, Indirubin-3′-monoxime]
